Consider four compounds from EP4603481A1, “PREPARATION AND USE OF CATIONIC LIPID MATERIAL” (Nanjing Geneleap Biotechnology Co., Ltd., priority 2022, dated 2024).

For data set [1], the system named is Balb/c mice. The data set is described as follows: Animal transfection of lipid nanoparticles, in vivo imaging after 12 h. The settings on record: for Multiple of local photon intensity in the supine position relative to MC3 / Multiple of photon intensity of the viscera in the supine position relative to MC3: Table 8, 0.1 mg/kg FFluc mRNA, 12 h; for Multiple of local photon intensity in the supine position relative to MC3: injection site; for Multiple of photon intensity of the viscera in the supine position relative to MC3: viscera (liver); for toxic and side effect on the liver: inferred from expression in the liver 12 h after administration. As to the method: (§1) Balb/c mice (available from Vital River Laboratory Animal Technology Co., Ltd., male, 6-8 weeks old, 20-24 g) were randomized into groups, 5 mice per group. The mice were injected the prepared lipid nanoparticles into the leg muscle at a dose of 0.1 mg/kg (calculated as to FFluc mRNA (SEQ ID NO.1)) and observed by in vivo imaging after 12 h. The injection sites on the bellies and legs of Balb/c mice were depilated, and after anesthesia, the animals were injected D-luciferin potassium salt intraperitoneally, and were observed and photographed in an IVIS living body imager (PerkinElmer, Series III), wherein the observation time of living body images was within 15 min after the injection of substrate. Table 7. Results of animal transfection efficiency of lipid nanoparticles made from different cationic lipids

The subject of data set [2] is Balb/c mice. The data set is described as follows: Animal transfection of lipid nanoparticles, in vivo imaging after 24 h. The settings on record: leg muscle injection, 0.1 mg/kg FFluc mRNA; for Multiple of total photon intensity in the supine position relative to MC3: Table 5, Balb/c mice; for Multiple of local photon intensity in the supine position relative to MC3: Table 5, injection site. As for the experimental part:
as §1, with “24” for “12”, “5.” for “7.”

“Also recorded” adds a separate entry of the source.

For `CCCCCCCCC(CCCCCC)C(=O)OCC(CN(C)CCN1CCCC1)OC(=O)C(CCCCCC)CCCCCCCC` (stereo not drawn) [Compound 1], the “Multiple of local photon intensity in the supine position relative to MC3” value in the data set on Balb/c mice [1] is on record as “not weaker than that of MC3 LNP”. Moreover, in the data set with Balb/c mice [2], the “Multiple of total photon intensity in the supine position relative to MC3” value turned out to be 1.668 and the “Multiple of local photon intensity in the supine position relative to MC3” value is listed as “significantly higher”.

With `CCCCCCCCC(CCCCCCCC)OC(=O)CCCCC(=O)OCC(CN(C)CCN1CCN(C)CC1)OC(=O)CCCCC(=O)OC(CCCCCCCC)CCCCCCCC` (stereo not drawn) [Compound 17], in the data set on Balb/c mice [1] (0.1 mg/kg), the “Multiple of local photon intensity in the supine position relative to MC3” value is given as “equivalent; also recorded: not weaker than that of MC3 LNP”. Also, in the data set with Balb/c mice [1], the “Multiple of photon intensity of the viscera in the supine position relative to MC3” value is reported as “almost have no expression in the liver”; the “toxic and side effect on the liver” value is “completely avoid liver toxicity; also recorded: completely avoid the toxic and side effect on the liver”.

With `CCCCCCCCC(CCCCCCCC)OC(=O)CCCCC(=O)OCC(CN(C)CCN1CCCC1)OC(=O)CCCCC(=O)OC(CCCCCCCC)CCCCCCCC` (stereo not drawn) [Compound 18], the “Multiple of local photon intensity in the supine position relative to MC3” value with Balb/c mice [1] (0.1 mg/kg) was “equivalent; also recorded: not weaker than that of MC3 LNP”. Further, in the data set on Balb/c mice [1], the “Multiple of photon intensity of the viscera in the supine position relative to MC3” value is on record as “almost have no expression in the liver”; the “toxic and side effect on the liver” value is “completely avoid liver toxicity; also recorded: completely avoid the toxic and side effect on the liver”.

Consider `CCCCCCCCC(CCCCCC)C(=O)OCC(CN(C)CCN1CCN(C)CC1)OC(=O)C(CCCCCC)CCCCCCCC` (stereo not drawn) [Compound 2], for which the “Multiple of local photon intensity in the supine position relative to MC3” value in the data set on Balb/c mice [1] is “not weaker than that of MC3 LNP”. Also, in the data set with Balb/c mice [2], the “Multiple of total photon intensity in the supine position relative to MC3” value is “equivalent” and the “Multiple of local photon intensity in the supine position relative to MC3” value is listed as “significantly higher”.
